Test results taken from article PMC5119973 (Cancer Medicine, 2016).

Legend:
[1] = target: T1, PDGFRB (Homo sapiens, UniProt P09619); experiment: KINOMEscan active-site competitive binding assay; conditions: slash = two separate measurements
T1 construct: purchased DiscoveRx

[2] = target: T2, RAF1 (Homo sapiens, UniProt P04049); experiment: KINOMEscan active-site competitive binding assay; conditions: slash = two separate measurements
T2 construct: purchased DiscoveRx

[3] = target: T3, FLT3^N841I (Homo sapiens, UniProt P36888, N841I); experiment: KINOMEscan active-site competitive binding assay
T3 construct: purchased DiscoveRx

[4] = target: T4, FLT3^R834Q (Homo sapiens, UniProt P36888, R834Q); experiment: KINOMEscan active-site competitive binding assay
T4 construct: purchased DiscoveRx

[5] = target: T5, KIT^D816V (Homo sapiens, UniProt P10721, D816V); experiment: KINOMEscan active-site competitive binding assay
T5 construct: purchased DiscoveRx
T5 sequence (P10721 26-976 D816V): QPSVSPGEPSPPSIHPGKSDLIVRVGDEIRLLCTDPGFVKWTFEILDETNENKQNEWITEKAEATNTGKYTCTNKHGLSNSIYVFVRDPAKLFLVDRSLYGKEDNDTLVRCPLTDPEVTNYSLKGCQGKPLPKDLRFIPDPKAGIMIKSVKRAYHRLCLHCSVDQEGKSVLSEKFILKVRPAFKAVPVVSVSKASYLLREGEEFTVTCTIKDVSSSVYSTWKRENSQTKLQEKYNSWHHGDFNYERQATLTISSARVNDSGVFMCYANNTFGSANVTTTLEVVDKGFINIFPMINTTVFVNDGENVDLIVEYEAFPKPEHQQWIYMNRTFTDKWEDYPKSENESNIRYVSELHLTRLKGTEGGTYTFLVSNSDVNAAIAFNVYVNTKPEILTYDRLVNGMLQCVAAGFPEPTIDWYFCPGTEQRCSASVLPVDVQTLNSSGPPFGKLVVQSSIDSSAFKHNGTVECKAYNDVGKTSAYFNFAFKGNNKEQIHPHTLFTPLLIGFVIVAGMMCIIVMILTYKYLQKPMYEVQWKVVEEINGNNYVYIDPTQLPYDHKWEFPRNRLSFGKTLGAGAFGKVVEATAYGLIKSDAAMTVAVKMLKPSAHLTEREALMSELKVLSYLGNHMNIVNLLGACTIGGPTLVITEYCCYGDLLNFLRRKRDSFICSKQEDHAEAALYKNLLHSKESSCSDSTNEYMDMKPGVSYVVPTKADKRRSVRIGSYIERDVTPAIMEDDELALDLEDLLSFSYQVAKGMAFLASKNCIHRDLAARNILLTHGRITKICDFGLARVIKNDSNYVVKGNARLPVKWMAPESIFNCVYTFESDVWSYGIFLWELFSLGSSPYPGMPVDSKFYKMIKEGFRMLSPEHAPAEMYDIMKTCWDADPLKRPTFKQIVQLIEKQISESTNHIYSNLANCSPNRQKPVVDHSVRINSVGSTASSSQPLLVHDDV

[6] = target: T6, KIT^L576P (Homo sapiens, UniProt P10721, L576P); experiment: KINOMEscan active-site competitive binding assay
T6 construct: purchased DiscoveRx
T6 sequence (P10721 26-976 L576P): as the sequence (P10721 26-976 D816V) above, with L551P, V791D counted along it

[7] = target: FGFRs; experiment: KINOMEscan active-site competitive binding assay; conditions: range among family members, data not shown
[8] = target: T7, FGFR2 (Homo sapiens, UniProt P21802); experiment: FGFR phosphorylation assay in SNU‐16 cells (western blot); assay type: cell-based; conditions: SNU‐16/FGFR2 cells, 0.1% bovine serum albumin, read-out: Mean ± SD IC50
T7 construct: FGFR2, but not FGFR1, is overexpressed in the SNU‐16 cell line; endogenous in cells
T7 sequence (P21802 22-822 isoform P21802-3 limits assumed): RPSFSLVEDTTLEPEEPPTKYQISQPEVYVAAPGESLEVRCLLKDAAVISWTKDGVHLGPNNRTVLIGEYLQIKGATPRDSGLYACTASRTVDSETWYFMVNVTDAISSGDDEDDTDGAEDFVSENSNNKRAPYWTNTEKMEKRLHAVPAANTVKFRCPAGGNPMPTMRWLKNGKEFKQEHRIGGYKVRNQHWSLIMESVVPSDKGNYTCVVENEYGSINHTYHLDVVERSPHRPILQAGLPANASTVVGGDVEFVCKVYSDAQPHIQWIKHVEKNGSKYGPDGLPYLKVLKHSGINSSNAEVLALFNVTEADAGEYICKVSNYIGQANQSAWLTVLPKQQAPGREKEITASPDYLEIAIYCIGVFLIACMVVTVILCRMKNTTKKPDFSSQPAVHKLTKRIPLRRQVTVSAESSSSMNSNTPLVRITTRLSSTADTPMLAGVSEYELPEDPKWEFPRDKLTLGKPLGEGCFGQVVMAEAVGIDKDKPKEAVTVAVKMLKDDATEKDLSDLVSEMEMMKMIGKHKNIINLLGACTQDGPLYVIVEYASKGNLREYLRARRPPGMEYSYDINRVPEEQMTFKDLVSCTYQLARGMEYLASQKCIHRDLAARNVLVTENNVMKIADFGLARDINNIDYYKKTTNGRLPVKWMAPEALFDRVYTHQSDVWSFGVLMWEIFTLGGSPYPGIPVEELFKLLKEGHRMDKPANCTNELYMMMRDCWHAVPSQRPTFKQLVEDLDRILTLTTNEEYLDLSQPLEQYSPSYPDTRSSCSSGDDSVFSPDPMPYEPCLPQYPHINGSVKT
Protocol: VEGFR2 assays were performed in murine fibroblasts (NIH‐3T3) in the presence of 0.1 mg/mL human serum albumin. […] Substrate phosphorylation was determined from total cell lysates by enzyme‐linked immunosorbent assay. In addition, an FGFR phosphorylation assay was performed using a human gastric carcinoma cell line (SNU‐16), with pFGFR assessed by western blot. The PDGFRA phosphorylation assay was performed by DiscoverRx using the DiscoverRx PathHunter cell line, modified to express PDGFRA. […] The assay signal was generated using a detection reagent cocktail and measured by chemoluminescence 13. Both the PDGFRA and FGFR assays were performed in the presence of 0.1 mg/mL BSA.

[9] = target: T8, VEGFR2 (Homo sapiens, UniProt P35968); experiment: VEGFR2 kinase phosphorylation assay in NIH‐3T3 cells; assay type: cell-based; conditions: 0.1 mg/mL human serum albumin, data not shown
T8 sequence (P35968 20-1356): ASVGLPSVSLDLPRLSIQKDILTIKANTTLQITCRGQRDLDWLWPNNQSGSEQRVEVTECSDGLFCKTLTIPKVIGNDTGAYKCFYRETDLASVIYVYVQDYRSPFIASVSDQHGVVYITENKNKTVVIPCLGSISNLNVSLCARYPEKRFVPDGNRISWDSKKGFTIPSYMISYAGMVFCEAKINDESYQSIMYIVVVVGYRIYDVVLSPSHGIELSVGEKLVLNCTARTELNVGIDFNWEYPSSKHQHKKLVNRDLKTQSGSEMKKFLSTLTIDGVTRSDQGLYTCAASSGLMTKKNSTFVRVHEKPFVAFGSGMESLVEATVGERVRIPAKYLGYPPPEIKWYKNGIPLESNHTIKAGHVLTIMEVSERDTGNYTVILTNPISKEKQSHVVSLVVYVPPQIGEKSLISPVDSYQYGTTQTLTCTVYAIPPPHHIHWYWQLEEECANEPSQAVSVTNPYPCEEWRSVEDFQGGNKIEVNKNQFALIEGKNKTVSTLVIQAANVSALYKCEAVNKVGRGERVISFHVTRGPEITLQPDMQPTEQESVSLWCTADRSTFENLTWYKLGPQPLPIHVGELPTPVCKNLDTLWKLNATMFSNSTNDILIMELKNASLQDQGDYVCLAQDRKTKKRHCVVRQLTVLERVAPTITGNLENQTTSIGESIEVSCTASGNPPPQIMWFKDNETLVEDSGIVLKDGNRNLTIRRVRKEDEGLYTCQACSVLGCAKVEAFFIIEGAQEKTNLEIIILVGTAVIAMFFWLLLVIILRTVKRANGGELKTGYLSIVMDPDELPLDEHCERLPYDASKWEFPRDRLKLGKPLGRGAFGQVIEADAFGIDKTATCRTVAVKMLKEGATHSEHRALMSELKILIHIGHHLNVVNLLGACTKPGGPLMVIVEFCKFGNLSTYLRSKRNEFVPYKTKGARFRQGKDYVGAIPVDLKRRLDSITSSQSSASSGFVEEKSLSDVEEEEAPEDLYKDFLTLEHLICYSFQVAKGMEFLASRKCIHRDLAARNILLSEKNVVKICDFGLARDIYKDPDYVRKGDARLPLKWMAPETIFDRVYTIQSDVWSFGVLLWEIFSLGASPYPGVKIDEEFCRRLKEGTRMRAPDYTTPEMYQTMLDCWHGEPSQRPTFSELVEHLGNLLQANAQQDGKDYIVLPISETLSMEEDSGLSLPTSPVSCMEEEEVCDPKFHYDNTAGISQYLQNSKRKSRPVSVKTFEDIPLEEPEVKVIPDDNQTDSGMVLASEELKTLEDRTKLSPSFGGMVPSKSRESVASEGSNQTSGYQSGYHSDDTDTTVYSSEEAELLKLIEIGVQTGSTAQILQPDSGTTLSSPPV
Protocol: TIE‐2, wt KIT, and BRAF^V600E assays were performed by ProQinase (Freiburg, Germany). Cell lines used were Chinese hamster ovary (TIE‐2 assay), human acute megakaryoblastic leukemia cell line (M07e; wt KIT assay), and rat fibroblasts (RAT‐1; BRAF^V600E assay). VEGFR2 assays were performed in murine fibroblasts (NIH‐3T3) in the presence of 0.1 mg/mL human serum albumin. KIT^K642E assays were performed in a GIST cell line (GIST882) in the presence of 0.1 mg/mL BSA. Substrate phosphorylation was determined from total cell lysates by enzyme‐linked immunosorbent assay. In addition, an FGFR phosphorylation assay was performed using a human gastric carcinoma cell line (SNU‐16), with pFGFR assessed by western blot. The PDGFRA phosphorylation assay was performed by DiscoverRx using the DiscoverRx PathHunter cell line, modified to express PDGFRA. […] The assay signal was generated using a detection reagent cocktail and measured by chemoluminescence 13. Both the PDGFRA and FGFR assays were performed in the presence of 0.1 mg/mL BSA.

[10] = test system: HT‐29; experiment: HT‐29 colon cancer xenograft in NMRI nu/nu mice; assay type: in vivo, mouse; conditions: end of study day 39
Protocol: Mouse experiments were approved by the relevant regulatory agency of the federal state of Berlin (Landesamt für Gesundheit und Soziales Berlin, approval number G0221/03). Mice were maintained in individually ventilated cages in groups of four mice per cage. They received autoclaved food and bedding (Ssniff, Soest, Germany) and acidified (pH 4.0) tap water ad libitum. The animal facility was equipped with an automatic 12 h light/dark regulation, temperature regulation at 22 ± 2°C, and relative humidity of 50 ± 10%. Female NMRI nu/nu mice (purchased from Charles River, Sulzfeld, Germany) were inoculated with 1 × 10^7 MDA‐MB‐231 or HT‐29 cells, which were allowed to grow subcutaneously to a palpable size of approximately 60–100 mm^3. […] All administrations were performed in the morning, without anesthesia. Tumor volume was determined twice per week using caliper measurements, and the volume was calculated using the formula (D × d^2)/2, with d defined as the minor axis and D as the major axis of the measurement. Tumor growth inhibition was calculated as relative tumor volume in relation to the first treatment day.
Changes in tumor volume were statistically evaluated by two‐way repeated‐measures analysis of variance, followed by Bonferroni correction, using GraphPad Prism 5 (San Diego, CA), and P < 0.05 was regarded as significant. Additionally, body weight of all mice was determined twice weekly, and the health status of the animals, including behavioral changes, was recorded daily.

[11] = Plasma pharmacokinetics in female NMRI Foxn1 nu/nu mice; conditions: for Calculated maximum free drug concentration: murine plasma
Protocol: Analyte concentrations were measured by high‐performance liquid chromatography using a Hewlett Packard 1100 Series system (Palo Alto, CA), with tandem mass spectrometric detection using an Applied Biosystems API 4000 (Thermo Fisher Scientific, Waltham, MA). The assay was validated according to the applicable guideline on method validation 11. The lower limit of quantitation for the assay was 2.00 μg/L, with a linear range of 2.00–20,000 μg/L using a sample volume of 100 μL.
Pharmacokinetic studies were performed in female NMRI Foxn1 nu/nu mice, supplied by Harlan‐Winkelmann GmbH (Borchen, Germany). […] Pharmacokinetic parameters, namely the AUC(0–24)ss and C max, were calculated from plasma concentrations using a noncompartmental analysis.

[12] = target: T8, VEGFR2; experiment: KINOMEscan active-site competitive binding assay; parameters: purchased DiscoveRx; conditions: slash = two separate measurements
[13] = target: T9, KIT (Homo sapiens, UniProt P10721); experiment: KINOMEscan active-site competitive binding assay; parameters: purchased DiscoveRx (KINOMEscan service); conditions: slash = two separate measurements
T9 sequence (P10721 26-976): as the sequence (P10721 26-976 D816V) above, with V791D counted along it

[14] = target: T9, KIT; experiment: Cellular kinase phosphorylation assay, M07e/KIT; assay type: cell-based; parameters: human acute megakaryoblastic leukemia cell line (M07e; wt KIT assay); host or cells: M07e; conditions: M07e/KIT cells; without serum; read-out: Mean ± SD IC50
[15] = M‐2‐treated mice, 10 mg/kg/day oral for 5 days
[16] = after M‐2 10 mg/kg/day oral for 5 days, total = sum of molar concentrations of regorafenib, M‐2, M‐5
[17] = after regorafenib 10 mg/kg/day oral for 5 days, total = sum of molar concentrations of regorafenib, M‐2, M‐5
[18] = after the labelled (administered) compound, 10 mg/kg/day oral for 5 days
[19] = analyte in plasma after M‐2 10 mg/kg/day oral for 5 days
[20] = analyte in plasma after M‐2 10 mg/kg/day oral for 5 days, AUC(0–24)ss
[21] = analyte in plasma after regorafenib 10 mg/kg/day oral for 5 days
[22] = analyte in plasma after regorafenib 10 mg/kg/day oral for 5 days, AUC(0–24)ss
[23] = regorafenib‐treated mice, 10 mg/kg/day oral for 5 days
[24] = analyte in plasma after M‐5 10 mg/kg/day oral for 5 days

T2 sequence (P04049 whole entry): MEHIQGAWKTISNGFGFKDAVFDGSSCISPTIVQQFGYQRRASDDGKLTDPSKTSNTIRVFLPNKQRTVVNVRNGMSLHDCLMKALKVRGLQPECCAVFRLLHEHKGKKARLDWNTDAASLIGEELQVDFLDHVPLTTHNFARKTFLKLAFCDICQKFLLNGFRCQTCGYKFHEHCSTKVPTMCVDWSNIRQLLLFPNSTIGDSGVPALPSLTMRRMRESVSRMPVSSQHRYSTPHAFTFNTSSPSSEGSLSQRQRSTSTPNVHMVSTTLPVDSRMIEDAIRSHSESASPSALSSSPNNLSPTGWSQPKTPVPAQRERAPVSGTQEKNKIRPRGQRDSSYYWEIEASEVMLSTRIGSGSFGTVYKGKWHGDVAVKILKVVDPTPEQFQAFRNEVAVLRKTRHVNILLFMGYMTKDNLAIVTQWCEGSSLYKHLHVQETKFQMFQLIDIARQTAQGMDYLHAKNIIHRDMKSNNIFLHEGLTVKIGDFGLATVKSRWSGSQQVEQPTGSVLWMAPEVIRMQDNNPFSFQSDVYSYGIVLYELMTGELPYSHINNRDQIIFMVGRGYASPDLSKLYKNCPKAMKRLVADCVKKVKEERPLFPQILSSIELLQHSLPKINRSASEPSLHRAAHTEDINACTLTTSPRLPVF
T1 sequence (P09619 33-1106): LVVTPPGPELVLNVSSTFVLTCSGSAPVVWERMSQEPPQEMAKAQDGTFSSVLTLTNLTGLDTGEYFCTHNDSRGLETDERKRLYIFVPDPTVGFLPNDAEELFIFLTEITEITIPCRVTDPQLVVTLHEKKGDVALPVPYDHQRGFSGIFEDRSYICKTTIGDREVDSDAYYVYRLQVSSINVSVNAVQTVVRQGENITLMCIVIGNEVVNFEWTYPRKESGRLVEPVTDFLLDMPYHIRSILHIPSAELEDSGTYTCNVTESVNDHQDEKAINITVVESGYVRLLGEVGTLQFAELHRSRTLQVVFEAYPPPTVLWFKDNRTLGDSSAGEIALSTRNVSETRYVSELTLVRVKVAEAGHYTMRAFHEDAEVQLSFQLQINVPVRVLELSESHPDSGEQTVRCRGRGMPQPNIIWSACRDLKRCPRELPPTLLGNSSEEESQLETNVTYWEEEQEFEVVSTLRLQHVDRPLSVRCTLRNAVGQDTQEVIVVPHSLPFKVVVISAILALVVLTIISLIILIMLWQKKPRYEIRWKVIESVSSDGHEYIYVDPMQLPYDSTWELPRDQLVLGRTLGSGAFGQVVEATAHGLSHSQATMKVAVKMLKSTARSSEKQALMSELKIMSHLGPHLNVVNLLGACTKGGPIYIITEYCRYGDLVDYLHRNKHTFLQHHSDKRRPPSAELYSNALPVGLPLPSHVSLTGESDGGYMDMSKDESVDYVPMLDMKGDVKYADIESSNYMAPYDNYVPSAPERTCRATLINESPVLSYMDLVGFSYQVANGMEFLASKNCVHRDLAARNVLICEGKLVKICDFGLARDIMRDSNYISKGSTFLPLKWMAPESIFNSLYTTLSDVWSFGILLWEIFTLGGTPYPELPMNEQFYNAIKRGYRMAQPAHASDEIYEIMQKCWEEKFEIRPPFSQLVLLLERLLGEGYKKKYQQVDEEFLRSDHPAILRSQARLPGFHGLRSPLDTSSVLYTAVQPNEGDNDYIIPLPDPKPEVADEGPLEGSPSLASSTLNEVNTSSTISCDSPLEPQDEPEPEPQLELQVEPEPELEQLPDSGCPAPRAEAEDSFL

Compound | Kd [1] [nM] | Kd [2] [nM] | Kd [3] [nM] | Kd [4] [nM] | Kd [5] [nM] | Kd [6] [nM] | Kd [7] [nM] | IC50 [8] [nM] | Inhibition of VEGFR2 activity, potency relative to regorafenib [9] | Tumor growth inhibition (%) ([10]; 3 mg/kg/day oral for 27 days) | Tumor growth inhibition (%) ([10]; 10 mg/kg/day oral for 27 days) | Share of total exposure (sum of total AUC(0–24)ss) [11, 15] [%] | AUC (% of total) [11, 16] [%] | AUC (% of total) [11, 17] [%] | AUC [11, 19] [µmol·h/L] | C max [11, 19] [ng/mL] | Cmax [11, 19] [nM] | AUC [11, 20] | AUC [11, 21] [µmol·h/L] | C max [11, 21] [ng/mL] | also measured
CNC(=O)c1cc(Oc2ccc(NC(=O)Nc3ccc(Cl)c(C(F)(F)F)c3)c(F)c2)cc[n+]1[O-] [M‐2] | 11 | 130 | 34 | 240 | 300 | 17 | 440 to 880 | ~200 | higher potency than regorafenib | 35 | 59 | 78 | 78 | 16 | 104.4 | 6150 | 12300 | 52,101 μg × h/L | 15.0 | 753 | Overall total C max for all three compounds [11, 18]: about 7500 μg/L; Sum of the total AUC(0–24)ss of regorafenib, M‐2 and M‐5 [11, 18]: 67,093 μg × h/L; Cmax [11, 21]: 1500 nM; AUC [11, 22]: 7490 µg·h/L; Calculated maximum free drug concentration [11]: 13.4 nmol/L; Share of total exposure (sum of total AUC(0–24)ss) [11, 23]: 16%; Kd [12]: 29 nM; Kd [13]: 9.8 nM; IC50 [14]: 13 nM
NC(=O)c1cc(Oc2ccc(NC(=O)Nc3ccc(Cl)c(C(F)(F)F)c3)c(F)c2)cc[n+]1[O-] [M‐5] | 11 | 66 | 23 | 270 | 310 | 9.1 | 790 to 1100 | ~1000 | higher potency than regorafenib | 13 | 66 | 5 | 5 | 2 | 7.0 | 342 | 700 | 3391 µg·h/L | 1.6 | 63 | AUC (% of total) ([11]; after M‐5 10 mg/kg/day oral for 5 days, only M‐5 determined): 100%; AUC [11, 24]: 108.9 µmol·h/L; Cmax [11, 24]: 10900 nM; AUC ([11]; analyte in plasma after M‐5 10 mg/kg/day oral for 5 days, AUC(0–24)ss): 52,796 μg × h/L; Cmax [11, 21]: 100 nM; AUC [11, 22]: 772 µg·h/L; Calculated maximum free drug concentration [11]: 0.5 nmol/L; Share of total exposure (sum of total AUC(0–24)ss) [11, 23]: 2%; Kd [12]: 31 nM; Kd [13]: 5.8 nM; IC50 [14]: 110 nM
CNC(=O)c1cc(Oc2ccc(NC(=O)Nc3ccc(Cl)c(C(F)(F)F)c3)c(F)c2)ccn1 [Regorafenib, reference compound] | – | – | – | – | – | – | – | – | – | 34 | 67 | – | – | – | – | – | – | – | – | – | –
